Counter-ions that a name gives are not always drawn.
Tests used:
[1] = Solid cyanine dye stability comparison; type: physicochemical; conditions: storage
Source text: Decomposition of the solid dye results in a red coloration of the solid and the solution. Carboxylic acid esters, especially methyl ester, are particularly sensitive in addition to the bromides.

lens capsule = test: Dye tests on porcine eyes (lens capsule staining); set-up: key: +++: visually assessed very strong coloration; ++: good coloration; +: satisfactory coloration; −: weak or absent coloration; conditions: incubated, rinsed after one minute
Method: For the dye test, in each case 5 mg dye was dissolved in 500 μL ethanol and diluted to 2 mL with BSS Plus solution as the stock solution, and then correspondingly further diluted. As an alternative, one can prepare stock solutions of the dye by dissolving, for example, 5 mg dye in 1 mL distilled water, adding 7 mL BSS solution and then combining with 1 mL NaCl solution having an osmolality of 620 (approximately 2%) in order to restore the original osmolality of the BSS solution (308). This stock solution can be correspondingly further diluted with BSS solution as required. Enucleated porcine eyes were used having a post mortem time period of a few hours. To dye the lens capsule, the cornea was first removed. Thereafter, the iris was resected and the capsular support was severed. The lens with intact lens capsule was removed and placed in a bowl filled with BSS. The lenses were thereafter incubated with the dyes according to the invention at various concentrations and then rinsed after one minute. The dye pattern was photographically documented, whereby the coloration was assessed without additional illumination, and fluorescence was assessed with illumination (Xenon lamp, halogen lamp with typical endoillumination source and fiber optics). The lens capsule is a very good model for dyeing due to the fact that it is a basal membrane, as is the ILM of the retina. Both structures are important target structures in eye surgery.

[2] = Fluorescence quantum yield; type: physicochemical; conditions: CHCl3; Reference: S-13 with Φ=1.00
Source text: IR spectra: Perkin Elmer Spectrum BX II, using a diamond anvil cell; UV/Vis spectra: Varian Cary 5000 and Bruins Omega 20; fluorescence spectra: Varian Eclispe; NMR spectroscopy: Varian Vnmrs 600 (600 MHz, 400 MHz, 200 MHz); mass spectrometry: Thermo Finnigan LQT FT.

retina = conditions: cited from earlier work
[3] = tested on: internal limiting membrane (ILM); conditions: literature experiments; cited from earlier work
[4] = Solid cyanine dye stability comparison; type: physicochemical; conditions: after work-up, forming a yellow color

Compound	Stability [1]	coloration of lens capsule (lens capsule; dye concentration 0.5%)	coloration of lens capsule (lens capsule; dye concentration 1.0)	melting point	Fluorescence quantum yield [2]	further results
COC(=O)CCCCCCCCCCN1/C(=C\C=C\C2=[N+](CCCCCCCCCCC(=O)OC)c3ccc4c(S(=O)(=O)O)cccc4c3C2(C)C)C(C)(C)c2c1ccc1c(S(=O)(=O)O)cccc21.[Br-] [Dye 6d, 3,3′-Di-(10-methoxycarbonyldecyl)-1,1,1′,1′-tetramethyl-1H-disulfobenzo[e]indocarbocyanine bromide]	Decomposition after 1 month	decomposed	decomposed	> 150 °C (dec.)	0.25	
CC1(C)C(/C=C/C=C2\N(CCCCCCCCCCC(=O)O)c3ccc4c(S(=O)(=O)O)cccc4c3C2(C)C)=[N+](CCCCCCCCCCC(=O)O)c2ccc3c(S(=O)(=O)O)cccc3c21.[Br-] [Dye 6c, 3,3′-Di-(10-carboxydecyl)-1,1,1′,1′-tetramethyl-1H-disulfobenzo[e]indocarbocyanine bromide]	No decomposition after 3 months	++	++	> 150 °C (dec.)	0.31	
CCOC(=O)CCCCCN1/C(=C\C=C\C2=[N+](CCCCCC(=O)OCC)c3ccc4c(S(=O)(=O)O)cccc4c3C2(C)C)C(C)(C)c2c1ccc1c(S(=O)(=O)O)cccc21.[Br-] [Dye 6g, 3,3′-Di-(5-ethoxycarbonylpentyl)-1,1,1′,1′-tetramethyl-1H-disulfobenzo[e]indocarbocyanine bromide]	No decomposition after 3 months	++	++	> 150 °C (dec.)	0.22	
CC1(C)C(/C=C/C=C2\N(CCC(=O)O)c3ccc4ccccc4c3C2(C)C)=[N+](CCC(=O)O)c2ccc3ccccc3c21.[Br-] (hydrate or solvate) [Dye 3a, 3,3′-Di-(2-carboxyethyl)-1,1,1′,1′-tetramethyl-1H-dibenzo[e]indocarbocyanine bromide]				199 °C		
CC1(C)C(/C=C/C=C2\N(CCCCS(=O)(=O)O)c3ccc4ccccc4c3C2(C)C)=[N+](CCCCS(=O)(=O)[O-])c2ccc3ccccc3c21 [Dye 3t, 3,3′-Di-(4-sulfobutyl)-1,1,1′,1′-tetramethyl-1H-dibenzo[e]indocarbocyanine bromide]	No decomposition after 3 years	+++			0.32	coloration of lens capsule (lens capsule; dye concentration 0.0025%): −; coloration of lens capsule (lens capsule; dye concentration 0.025%): +; coloration of lens capsule (lens capsule; dye concentration 0.25%): ++
CC1(C)C(/C=C/C=C/C=C/C=C2\N(CCCCS(=O)(=O)O)c3ccc4ccccc4c3C2(C)C)=[N+](CCCCS(=O)(=O)[O-])c2ccc3ccccc3c21 [ICG, indocyanine green]						toxic effect on the retina (retina): toxic effect on the retina which is difficult to control; staining of the ILM [3]: Selective staining
CC1(C)C(/C=C/C=C2\N(CCCCS(=O)(=O)[O-])c3ccc4c(S(=O)(=O)O)cccc4c3C2(C)C)=[N+](CCCCS(=O)(=O)O)c2ccc3c(S(=O)(=O)O)cccc3c21 (as salt: bromide) [Dye 6a, 3,3′-Di-(4-sulfobutyl)-1,1,1′,1′-tetramethyl-1H-disulfobenzo[e]indocarbocyanine bromide]				> 150 °C		
3,3′-Di-(5-brompentyl)-1,1,1′,1′-tetramethyl-1H-disulfobenzo[e]indocarbocyanine bromide [Dye 6h]	Decomposition after a few days	decomposed	decomposed		0.19	
CCOC(=O)CCCCN1/C(=C\C=C\C2=[N+](CCCCC(=O)OCC)c3ccc4c(S(=O)(=O)O)cccc4c3C2(C)C)C(C)(C)c2c1ccc1c(S(=O)(=O)O)cccc21.[Br-] [Dye 6f, 3,3′-Di-(4-ethoxycarbonylbutyl)-1,1,1′,1′-tetramethyl-1H-disulfobenzo[e]indocarbocyanine bromide]	Decomposition after 2 months	decomposed	decomposed	> 150 °C (dec.)	0.11	decomposition of the dye after preparation [4]: decomposes as soon as after one day
CC1(C)C(=CC=CC2=[N+](CCCCCCCCCCS(=O)(=O)O)c3ccc4ccccc4c3C2(C)C)N(CCCCCCCCCCS(=O)(=O)O)c2ccc3ccccc3c21.[Br-] [Dye 3v, 3,3′-Di-(10-sulfodecyl)-1,1,1′,1′-tetramethyl-1H-dibenzo[e]indocarbocyanine bromide]	No decomposition after 4 months	−	−		0.14	
CC1(C)C(/C=C/C=C2\N(CCC(=O)O)c3ccc4c(S(=O)(=O)O)cccc4c3C2(C)C)=[N+](CCC(=O)O)c2ccc3c(S(=O)(=O)O)cccc3c21.[Br-] [Dye 6b, 3,3′-Di-(2-carboxyethyl)-1,1,1′,1′-tetramethyl-1H-disulfobenzo[e]indocarbocyanine bromide]	Decomposition after a few days	+++	+++	> 180 °C (dec.)	0.21	
CCCCCN1/C(=C\C=C\C2=[N+](CCCCC)c3ccc4ccccc4c3C2(C)C)C(C)(C)c2c1ccc1ccccc21.[Br-] [Dye 6j, 3,3′-Di-(pentyl)-1,1,1′,1′-tetramethyl-1H-dibenzo[e]indocarbocyanine bromide]				> 150 °C (dec.)	0.20	
CCOC(=O)CCN1/C(=C\C=C\C2=[N+](CCC(=O)OCC)c3ccc4c(S(=O)(=O)O)cccc4c3C2(C)C)C(C)(C)c2c1ccc1c(S(=O)(=O)O)cccc21.[Br-] [Dye 6e, 3,3′-Di-(2-ethoxycarbonylethyl)-1,1,1′,1′-tetramethyl-1H-disulfobenzo[e]indocarbocyanine bromide]	Decomposition after 2 months	decomposed	decomposed	> 150 °C (dec.)	0.18	
CC1(C)C(/C=C/C=C2\N(CCCCS(=O)(=O)O)c3ccc4ccccc4c3C2(C)C)=[N+](CCCCS(=O)(=O)[O-])c2ccc3ccccc3c21 (as salt: bromide) [Dye 3t, 3,3′-Di-(4-sulfobutyl)-1,1,1′,1′-tetramethyl-1H-dibenzo[e]indocarbocyanine bromide]				> 250 °C		

From patent US8835484B2, “Naphthocyanines for use as contrast agents” (Alamedics GmbH & Co. KG, priority 2010, dated 2014)
